# Test results: publication PMC9959349, “Discovery of the 3-Amino-1,2,4-triazine-Based Library as Selective PDK1 Inhibitors with Therapeutic Potential in Highly Aggressive Pancreatic Ductal Adenocarcinoma” (International Journal of Molecular Sciences, 2023)
# Structures can show the parent of a compound that is named as a salt.
# Target: recombinant human PDK1 (Homo sapiens, UniProt Q15118)
# Test: ADP-Glo kinase assay, PDK1
# Conditions: not given
# recombinant human PDK1, sequence (Q15118 29-436): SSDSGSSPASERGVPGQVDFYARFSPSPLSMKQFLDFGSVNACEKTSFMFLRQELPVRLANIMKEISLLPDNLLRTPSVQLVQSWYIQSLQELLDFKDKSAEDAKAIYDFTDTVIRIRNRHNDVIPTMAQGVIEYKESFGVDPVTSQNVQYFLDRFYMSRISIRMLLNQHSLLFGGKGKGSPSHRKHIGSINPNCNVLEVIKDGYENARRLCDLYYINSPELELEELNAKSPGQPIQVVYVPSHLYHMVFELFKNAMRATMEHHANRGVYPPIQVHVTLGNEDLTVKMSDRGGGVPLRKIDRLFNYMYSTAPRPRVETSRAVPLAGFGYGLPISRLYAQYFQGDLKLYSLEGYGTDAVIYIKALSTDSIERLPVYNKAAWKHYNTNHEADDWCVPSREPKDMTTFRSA
row,Structure (SMILES),IC50 [µM]
1,"O=C(c1ccccc1)C(Cl)Cl [DAP, 2,2-dichloroacetophenone, reference compound]",> 100
2,Cn1cc(-c2nc(N)nnc2-c2c[nH]c3ccc(F)cc23)c2cc(Br)ccc21 [5x],0.7

# Test system: PSN-1 cells
# Test: 3D spheroid cytotoxicity, acid phosphatase (APH) assay, PSN-1
# Conditions: read-out: IC50 ±S.D. PSN-1 (3D cytotoxicity); spheroids, 72 h, APH test
# Description: (§3) The PDAC cancer spheroids were treated with tested compounds for 72 h, and cell viability was assessed by means of the acid phosphatase (APH) assay (Table 3).
# (§4) An APH-modified assay was used for determining cell viability in 3D spheroids, as previously described [61]. Briefly, the pre-seeded spheroids were treated with fresh medium containing the compound to be studied at the appropriate concentration (range 2.5–200 μM). Triplicate cultures were established for each treatment. After 72 h, each well was treated with 100 μL of the assay buffer (0.1 M sodium acetate, 0.1% Triton-X-100, supplemented with ImmunoPure p-nitrophenyl phosphate; Sigma Chemical Co., Ltd.) and, following 3 h of incubation, 10 μL of 1 M NaOH solution was added. […] The mean absorbance for each drug dose was expressed as a percentage of the control untreated well absorbance (T/C) and plotted vs. drug concentration. […] The evaluation was based on means from at least four independent experiments.
row,Structure (SMILES),IC50 [µM]
1,"O=C(O)C(Cl)Cl [DCA, Dichloroacetic acid, reference compound]",> 1000
2,"Nc1ccn([C@@H]2O[C@H](CO)[C@@H](O)C2(F)F)c(=O)n1 [Gemcitabine, gemcitabine hydrochloride, reference compound]",160 ± 5.6
3,"O=C(c1ccccc1)C(Cl)Cl [DAP, 2,2-dichloroacetophenone, reference compound]",78.2 ± 6.8
4,Cn1cc(-c2nnc(N)nc2-c2cn(C)c3ccc(Br)cc23)c2ccccc21 [5j],10.4 ± 1.6
5,Cn1cc(-c2nnc(N)nc2-c2cn(C)c3ccc(F)cc23)c2cc(F)ccc21 [5g],5.8 ± 0.8
6,COc1ccc2c(c1)c(-c1nnc(N)nc1-c1cn(C)c3ccc(F)cc13)cn2C [6k],9.4 ± 0.2

# Test system: BxPC-3 cells
# Test: 2D cytotoxicity, MTT assay, BxPC-3
# Assay type: cell-based
# Conditions: Homo sapiens, BXPC-3, 72 h, 72 h, MTT test, KRAS-wild-type BxPC-3; read-out: IC50 ±S.D. BxPC-3 (2D cytotoxicity)
# Description: (§1) All newly synthesized compounds were then screened for their cytotoxic activity against two human PDAC cell lines, namely a KRAS-wild-type PDAC cell line (BxPC-3 cells) and a KRAS-mutant PDAC cell line (PSN-1 cells). […] The cytotoxicity parameters, expressed in terms of IC50 and obtained after 72 h of drug exposure by MTT assay, are listed in the Supplementary Materials (Table S2).
# (§2) The growth inhibitory effect on tumor cells was evaluated by means of the MTT assay. Briefly, 3–8 × 10^3 cells/well, dependent upon the growth characteristics of the cell line, were seeded in 96-well microplates in growth medium (100 μL). After 24 h, the medium was removed and replaced with a fresh one containing the compound to be studied at the appropriate concentration. Triplicate cultures were established for each treatment. After 72 h, each well was treated with 10 μL of a 5 mg/mL MTT saline solution, and following 5 h of incubation, 100 μL of a sodium dodecyl sulfate (SDS) solution in HCl 0.01 M was added. After overnight incubation, cell growth inhibition was detected by measuring the absorbance of each well at 570 nm using a Bio-Rad 680 microplate reader. The mean absorbance for each drug dose was expressed as a percentage of the control untreated well absorbance and plotted vs. drug concentration. IC50 values, the drug concentrations that reduce the mean absorbance at 570 nm to 50% of those in the untreated control wells, were calculated by the four-parameter logistic (4-PL) model. The evaluation was based on means from at least four independent experiments.
row,Structure (SMILES),IC50 [µM]
1,"Nc1ccn([C@@H]2O[C@H](CO)[C@@H](O)C2(F)F)c(=O)n1 [Gemcitabine, gemcitabine hydrochloride, reference compound]",0.02 ± 0.003
2,Cn1cc(-c2nc(N)nnc2-c2c[nH]c3ccc(Br)cc23)c2cc(F)ccc21 [5t],1.4 ± 0.2
3,Cn1cc(-c2nnc(N)nc2-c2c[nH]c3ccc(F)cc23)c2cc(Br)ccc21 [6x],0.3 ± 0.1
4,Nc1nnc(-c2c[nH]c3ccc(Br)cc23)c(-c2c[nH]c3ccc(Br)cc23)n1 [5d],0.4 ± 0.1
5,Cn1cc(-c2nnc(N)nc2-c2c[nH]c3ccccc23)c2cc(Br)ccc21 [6o],0.3 ± 0.03
6,Cn1cc(-c2nc(N)nnc2-c2c[nH]c3ccc(F)cc23)c2cc(Br)ccc21 [5x],0.2 ± 0.04
7,COc1ccc2[nH]cc(-c3nc(N)nnc3-c3cn(C)c4ccc(OC)cc34)c2c1 [6y],0.3 ± 0.1
8,Cn1cc(-c2nc(N)nnc2-c2c[nH]c3ccccc23)c2cc(Br)ccc21 [5o],0.2 ± 0.03
9,Cn1cc(-c2nnc(N)nc2-c2cn(C)c3ccc(Br)cc23)c2ccccc21 [5j],0.1 ± 0.04
10,Cn1cc(-c2nnc(N)nc2-c2c[nH]c3ccc(F)cc23)c2ccccc21 [6v],0.1 ± 0.02
11,Cn1cc(-c2nc(N)nnc2-c2c[nH]c3ccc(F)cc23)c2ccccc21 [5v],0.2 ± 0.03

# Same assay, conditions: Homo sapiens, BXPC-3, 72 h, read-out: IC50 ±S.D. BxPC-3 (2D cytotoxicity)
row,Structure (SMILES),IC50 [µM]
1,"O=C(c1ccccc1)C(Cl)Cl [DAP, 2,2-dichloroacetophenone, reference compound]",1.06 ± 0.9

# Test system: not given
# Test: not given
# Conditions: not given
row,Structure (SMILES),melting point [°C]
1,Cn1cc(-c2nc(N)nnc2-c2c[nH]c3ccccc23)c2ccccc21 [5m],246.6
2,Nc1nnc(-c2c[nH]c3ccc(F)cc23)c(-c2c[nH]c3ccc(F)cc23)n1 [5c],178.1
3,Cn1cc(-c2nnc(N)nc2-c2c[nH]c3ccccc23)c2ccccc21 [6m],311.3
4,Nc1nnc(-c2c[nH]c3ccccc23)c(-c2c[nH]c3ccccc23)n1 [5a],288.2
5,Cn1cc(-c2nnc(N)nc2-c2c[nH]c3ccc(Br)cc23)c2cc(F)ccc21 [6t],314.3
6,COc1ccc2c(c1)c(-c1nnc(N)nc1-c1c[nH]c3ccccc13)cn2C [6p],279.6
7,Cn1cc(-c2nc(N)nnc2-c2c[nH]c3ccc(Br)cc23)c2cc(F)ccc21 [5t],266.9
8,Cn1cc(-c2nnc(N)nc2-c2c[nH]c3ccc(F)cc23)c2cc(Br)ccc21 [6x],270.2
9,Nc1nnc(-c2c[nH]c3ccc(Br)cc23)c(-c2c[nH]c3ccc(Br)cc23)n1 [5d],208.2
10,Cn1cc(-c2nc(N)nnc2-c2c[nH]c3ccc(Br)cc23)c2cc(Br)ccc21 [5r],239
11,COc1ccc2c(c1)c(-c1nnc(N)nc1-c1cn(C)c3ccc(OC)cc13)cn2C [5f],199.5
12,Cn1cc(-c2nnc(N)nc2-c2cn(C)c3ccccc23)c2ccccc21 [5e],274.4
13,COc1ccc2c(c1)c(-c1nc(N)nnc1-c1c[nH]c3ccccc13)cn2C [5p],288.4
14,Cn1cc(-c2nnc(N)nc2-c2c[nH]c3ccccc23)c2cc(Br)ccc21 [6o],291
15,Cn1cc(-c2nc(N)nnc2-c2c[nH]c3ccc(F)cc23)c2cc(Br)ccc21 [5x],267.6
16,COc1ccc2[nH]cc(-c3nc(N)nnc3-c3cn(C)c4ccc(OC)cc34)c2c1 [6y],263.3
17,COc1ccc2[nH]cc(-c3nnc(N)nc3-c3cn(C)c4ccc(OC)cc34)c2c1 [5y],205.5
18,Cn1cc(-c2nc(N)nnc2-c2c[nH]c3ccccc23)c2cc(Br)ccc21 [5o],271
19,COc1ccc2[nH]cc(-c3nnc(N)nc3-c3cn(C)c4ccc(Br)cc34)c2c1 [5aa],267.8
20,COc1ccc2[nH]cc(-c3nc(N)nnc3-c3cn(C)c4ccc(Br)cc34)c2c1 [6aa],241.8
21,Cn1cc(-c2nnc(N)nc2-c2cn(C)c3ccc(Br)cc23)c2ccccc21 [5j],257.3
22,Cn1cc(-c2nc(N)nnc2-c2c[nH]c3ccccc23)c2cc(F)ccc21 [5n],254.3
23,Cn1cc(-c2nnc(N)nc2-c2cn(C)c3ccc(F)cc23)c2cc(F)ccc21 [5g],236.5
24,COc1ccc2[nH]cc(-c3nnc(N)nc3-c3cn(C)c4ccccc34)c2c1 [5z],249.4
25,COc1ccc2c(c1)c(-c1nnc(N)nc1-c1cn(C)c3ccc(F)cc13)cn2C [6k],251.2
26,Cn1cc(-c2nnc(N)nc2-c2c[nH]c3ccc(F)cc23)c2ccccc21 [6v],295.8
27,COc1ccc2[nH]cc(-c3nc(N)nnc3-c3cn(C)c4ccccc34)c2c1 [6z],243.3
28,Cn1cc(-c2nnc(N)nc2-c2c[nH]c3ccc(Br)cc23)c2cc(Br)ccc21 [6r],282.4
29,Cn1cc(-c2nc(N)nnc2-c2c[nH]c3ccc(F)cc23)c2ccccc21 [5v],285.9
30,Cn1cc(-c2nc(N)nnc2-c2c[nH]c3ccc(F)cc23)c2cc(F)ccc21 [6u],259.5

# Target: recombinant human HSP90 (Homo sapiens, UniProt P07900)
# Test: HSP90 inhibition assay (Transcreener ADP kit)
# Assay type: biochemical
# Conditions: not given
# Description: The in vitro inhibitory activity of tested compounds on recombinant human HSP90 was assessed by The Transcreener™ ADP kit (Bellbrook Labs) according to the manufacturer’s protocol. Human recombinant HSP90 protein was incubated with tested compounds in the presence of 250 μM ATP at 37 °C for 30 min, 4°C for 30 min and ATPase activity was stopped via the addition of the stop and detect buffer. Following this, samples were incubated for 1 h at room temperature with the ADP2 Antibody and the ADP Alexa594 Tracer. The fluorescence intensity polarization of samples was measured with a Tecan plate reader (Tecan Infinite® M200). The evaluation was based on means from at least three independent experiments.
row,Structure (SMILES),IC50 [µM]
1,Cn1cc(-c2nc(N)nnc2-c2c[nH]c3ccc(F)cc23)c2cc(Br)ccc21 [5x],> 1.5

# Test system: PSN-1 cells
# Test: 2D cytotoxicity, MTT assay, PSN-1
# Assay type: cell-based
# Conditions: Homo sapiens, PSN1, 72 h, 72 h, MTT test, KRAS-mutant PSN-1; read-out: IC50 ±S.D. PSN-1 (2D cytotoxicity)
# Description: as §1, §2
row,Structure (SMILES),IC50 [µM]
1,"Nc1ccn([C@@H]2O[C@H](CO)[C@@H](O)C2(F)F)c(=O)n1 [Gemcitabine, gemcitabine hydrochloride, reference compound]",0.1 ± 0.04
2,Cn1cc(-c2nc(N)nnc2-c2c[nH]c3ccc(Br)cc23)c2cc(F)ccc21 [5t],0.4 ± 0.1
3,Cn1cc(-c2nnc(N)nc2-c2c[nH]c3ccc(F)cc23)c2cc(Br)ccc21 [6x],0.3 ± 0.04
4,Nc1nnc(-c2c[nH]c3ccc(Br)cc23)c(-c2c[nH]c3ccc(Br)cc23)n1 [5d],0.3 ± 0.04
5,Cn1cc(-c2nnc(N)nc2-c2c[nH]c3ccccc23)c2cc(Br)ccc21 [6o],0.4 ± 0.04
6,Cn1cc(-c2nc(N)nnc2-c2c[nH]c3ccc(F)cc23)c2cc(Br)ccc21 [5x],0.3 ± 0.1
7,COc1ccc2[nH]cc(-c3nc(N)nnc3-c3cn(C)c4ccc(OC)cc34)c2c1 [6y],0.6 ± 0.04
8,Cn1cc(-c2nc(N)nnc2-c2c[nH]c3ccccc23)c2cc(Br)ccc21 [5o],0.5 ± 0.1
9,Cn1cc(-c2nnc(N)nc2-c2cn(C)c3ccc(Br)cc23)c2ccccc21 [5j],0.4 ± 0.1
10,Cn1cc(-c2nnc(N)nc2-c2c[nH]c3ccc(F)cc23)c2ccccc21 [6v],0.2 ± 0.03
11,Cn1cc(-c2nc(N)nnc2-c2c[nH]c3ccc(F)cc23)c2ccccc21 [5v],0.2 ± 0.04

# Same assay, conditions: Homo sapiens, PSN1, 72 h, read-out: IC50 ±S.D. PSN-1 (2D cytotoxicity)
row,Structure (SMILES),IC50 [µM]
1,"O=C(c1ccccc1)C(Cl)Cl [DAP, 2,2-dichloroacetophenone, reference compound]",10.2 ± 1.6

# Test system: BxPC-3 cells
# Test: 3D spheroid cytotoxicity, acid phosphatase (APH) assay, BxPC-3
# Conditions: read-out: IC50 ±S.D. BxPC-3 (3D cytotoxicity); spheroids, 72 h, APH test
# Description: as §3, §4
row,Structure (SMILES),IC50 [µM]
1,"O=C(O)C(Cl)Cl [DCA, Dichloroacetic acid, reference compound]",> 1000
2,"Nc1ccn([C@@H]2O[C@H](CO)[C@@H](O)C2(F)F)c(=O)n1 [Gemcitabine, gemcitabine hydrochloride, reference compound]",103 ± 6.3
3,"O=C(c1ccccc1)C(Cl)Cl [DAP, 2,2-dichloroacetophenone, reference compound]",87.4 ± 8.9
4,Cn1cc(-c2nnc(N)nc2-c2cn(C)c3ccc(Br)cc23)c2ccccc21 [5j],16.7 ± 2
5,Cn1cc(-c2nnc(N)nc2-c2cn(C)c3ccc(F)cc23)c2cc(F)ccc21 [5g],19.5 ± 2.1
6,COc1ccc2c(c1)c(-c1nnc(N)nc1-c1cn(C)c3ccc(F)cc13)cn2C [6k],22.3 ± 2.6

# Test system: murine Lewis Lung Carcinoma (LLC)
# Test: In vivo anticancer activity, LLC solid tumor model
# Conditions: LLC-bearing C57BL mice, daily dosing days 7-14, evaluated day 15; 5i 20 mg kg−1 i.p., gemcitabine 60 mg kg−1, cisplatin 3 mg kg−1
# Description: Seven days after tumor inoculation the tumor-bearing mice were randomized into vehicle control and treatment groups.
# The LLC was implanted intramuscularly (i.m.) as a 2 × 10^6 cell inoculum into the right hind leg of 8-week-old male and female C57BL mice (24 ± 3 g body weight). After 7 days from tumor implantation (visible tumors), mice were randomly divided into 4 groups (8 animals per group) and subjected to daily i.p. administration. […] At day 15, animals were sacrificed, the legs were amputated at the proximal end of the femur, and the inhibition of tumor growth was determined from the difference in the weights of the tumor-bearing leg and the healthy leg of the animals, expressed as a percentage referenced to the control animals. Body weight was measured at day 0 and from day 7 onwards every 2 days and was taken as a parameter for systemic toxicity. All presented values are the means ± SD of no less than three measurements.
row,Structure (SMILES),reduction in tumor growth compared to the control group
1,"Nc1ccn([C@@H]2O[C@H](CO)[C@@H](O)C2(F)F)c(=O)n1 [Gemcitabine, gemcitabine hydrochloride, reference compound]",about 80%
2,N.N.[Cl][Pt][Cl] [cisplatin],~ 84%

# Test system: not listed separately
# Test: Body weight changes of LLC-bearing mice
# Assay type: in vivo
# Conditions: LLC-bearing C57BL mice, daily dosing; gemcitabine 60 mg kg−1, cisplatin 3 mg kg−1
row,Structure (SMILES),body weight loss
1,"Nc1ccn([C@@H]2O[C@H](CO)[C@@H](O)C2(F)F)c(=O)n1 [Gemcitabine, gemcitabine hydrochloride, reference compound]",~ 20%
2,N.N.[Cl][Pt][Cl] [cisplatin],~ 20%
